Results from patent US4542021A, “Antitumor compositions for non-injection administration” (Yamasa Shoyu Kabushiki Kaisha, priority 1978, dated 1985).
Where a name gives a salt, the structure may show the parent alone. Read-outs that look alike come from different tables or passages of the source.

Experiments:
[1] = test system: L1210 leukemia; test: Therapeutic test on L1210 leukemia (oral, once a day); assay type: in vivo, BDF1 mice; conditions: Mus musculus, read-out: % ILS (increase in life span)
Method: The L1210 leukemic cell suspension (1×10^5 cells/0.2 ml) was implanted intraperitoneally in BDF1 mice (males, 18 to 22 g, females, 16 to 20 g) (7 mice per group). From 24 hours after the implantation to the 5th day thereafter, the predetermined doses of the compounds to be tested were orally administered to the mice consecutively once a day. The compounds to be tested were dissolved or suspended in a phosphate-bufferedsalt solution (PBS) containing 0.5% carboxymethylcellulose, and given at a dose rate of 0.1 ml per 10 g of each mouse's body weight. To a control group, only the same solvent as used for the dissolution of the compounds to be tested was administered in the same way. The mean survival times (MST) for each group were calculated, and the corresponding increase in life span (%ILS) was obtained in accordance with the following formula, the results of which are shown in Table 1. [formula]

[2] = Acute toxicity test, oral (Test Example 5); parameters: species or system ICR-JCL mice; conditions: mouse, in vivo, neutralized ester, male mice, 14th day
Method: An ara-CMP ester was neutralized and dissolved in saline containing 0.5% of carboxymethylcellulose, and the resulting solution was orally administered to ICR-JCL mice (males, 24 to 26 g) in a dose of 0.2 ml per 10 g of each mouse's body weight.

[3] = test system: L1210 leukemic cells; test: Experimental tumor proliferation model in the lymph nodes, once a day for 6 days; assay type: in vivo, BDF1 mice; conditions: ip
Method: (§1) L1210 leukemic cells (1×10^6 cells/0.05 ml) were implanted to the right inner-thigh hypoderms of BDF1 mice (males, 18 to 22 g). From one day after the transplantation, the compounds to be tested were administered intraperitoneally or orally to the mice once a day consecutively for 6 days. The compounds being tested were dissolved in a phosphate-buffered salt solution (PBS) containing 0.5% carboxymethylcellulose to a suitable concentration, and administered to the mice at a dose rate of 0.1 ml per 10 g of each mouse's body weight. The increases in life span (%ILS) were calculated similarly as in Test Example 1.

[4] = test system: B16 melanoma; test: Effectiveness against B16 melanoma (oral, 3 times a week); assay type: in vivo, BDF1 mice
Method: The B16 melanoma cells (1×10^6 cells) were implanted to the right side-abdominal hypoderms of BDF1 mice (male, 18 to 22 g). From the 13th day after the implantation to death the compounds to be tested were administered orally 3 times a week. The compounds to be tested were dissolved in a phosphate-buffered salt solution (PBS) containing 0.5% carboxymethyl-cellulose to a suitable concentration, and given to the mice at a dose rate of 0.1 ml per 10 g of each mouse's body weight. The increases in life span (%ILS) were calculated in accordance with the same formula as described in Test Example 1.

[5] = test system: L1210 leukemic cells; test: Experimental tumor proliferation model in the lymph nodes, single administration on sixth day; assay type: in vivo, BDF1 mice; conditions: ip, once on sixth day
Method: as §1
Furthermore, in a similar manner, each of the test compounds was administered only once on the sixth day after implantation.

[6] = L1210, 720 h, oral, 100 mg/kg/day, > means some mice survived the test period (30 days)
[7] = L1210, 720 h, oral, 200 mg/kg/day, > means some mice survived the test period (30 days)
[8] = L1210, 720 h, oral, 400 mg/kg/day, > means some mice survived the test period (30 days)

| SMILES | ILS at 100 mg/kg/day [1, 6] | ILS at 200 mg/kg/day [1, 7] | ILS at 25 mg/kg/day ([1]; L1210, oral) | ILS at 50 mg/kg/day ([1]; L1210, oral) | ILS at 400 mg/kg/day [1, 8] | other results |
| --- | --- | --- | --- | --- | --- | --- |
| CCCCCCCCCCCCCCCCCCCCOP(=O)(O)OC[C@H]1O[C@@H](n2ccc(N)nc2=O)[C@@H](O)[C@@H]1O [C20-ara-CMP ester, ara-CMP-eicosyl ester] | 126% | > 199% | 60% | 90% | – | ILS at 6.25 mg/kg/day ([1]; L1210, oral, 6.25 mg/kg/day): 19%; ILS at 12.5 mg/kg/day ([1]; L1210, oral): 39%; LD50 at 336 h [2]: 2720 mg/kg |
| CCCCCCCCCCCCCCCCCCCCCCCOP(=O)(O)OC[C@H]1O[C@@H](n2ccc(N)nc2=O)[C@@H](O)[C@@H]1O [C23-ara-CMP ester, ara-CMP-tricosyl ester] | 81% | 110% | 51% | 65% | 128% | ILS at 12.5 mg/kg/day ([1]; L1210, oral): 29% |
| Nc1ccn([C@@H]2O[C@H](CO)[C@@H](O)[C@@H]2O)c(=O)n1 [ara-C (hydrochloride), 1-β-D-arabinofuranosyl cytosine, reference compound] | 22% | 34% | – | – | 67% | Increase in life span (% ILS) ([3]; 50 mg/kg/day): 101%; Mean survival time (MST ± SE) ([3]; 50 mg/kg/day): 13.9 ± 0.59; Increase in life span (% ILS) ([3]; 100 mg/kg/day): 110%; Mean survival time (MST ± SE) ([3]; 100 mg/kg/day): 14.5 ± 0.62; Increase in life span (% ILS) ([4]; 100 mg/kg): 22%; Mean survival time (MST ± SE) ([4]; 100 mg/kg): 26.8 ± 1.50; Increase in life span (% ILS) ([4]; 200 mg/kg): -5%; Mean survival time (MST ± SE) ([4]; 200 mg/kg): 21.0 ± 1.76; Increase in life span (% ILS) ([4]; 400 mg/kg): 1%; Mean survival time (MST ± SE) ([4]; 400 mg/kg): 22.2 ± 2.82; Increase in life span (% ILS) ([5]; 250 mg/kg): 36%; Mean survival time (MST ± SE) ([5]; 250 mg/kg): 9.9 ± 0.13; Increase in life span (% ILS) ([5]; 500 mg/kg): 49%; Mean survival time (MST ± SE) ([5]; 500 mg/kg): 10.9 ± 0.23 |
| CCCCCCCCCCOP(=O)(O)OC[C@H]1O[C@@H](n2ccc(N)nc2=O)[C@@H](O)[C@@H]1O [ara-CMP decyl ester, reference compound] | 8% | 36% | 0% | 4% | 39% | – |
| CCCCCCCCCCCCCCCCCCCCCCCCCCOP(=O)(O)OC[C@H]1O[C@@H](n2ccc(N)nc2=O)[C@@H](O)[C@@H]1O [ara-CMP hexacosyl ester, reference compound] | 27% | 52% | 14% | 23% | 86% | – |
| COP(=O)(O)OC[C@H]1O[C@@H](n2ccc(N)nc2=O)[C@@H](O)[C@@H]1O [ara-CMP methyl ester, reference compound] | – | – | – | – | – | ILS at 100 mg/kg/day ([1]; L1210, po, 720 h): 13%; ILS at 200 mg/kg/day ([1]; L1210, po, 720 h): 48%; ILS at 400 mg/kg/day ([1]; L1210, po, 720 h): 65% |
| CCCCCCCCCCCOP(=O)(O)OC[C@H]1O[C@@H](n2ccc(N)nc2=O)[C@@H](O)[C@@H]1O [ara-CMP undecyl ester, reference compound] | 31% | 78% | 12% | 27% | – | – |
| Nc1ccn([C@@H]2O[C@H](COP(=O)(O)O)[C@@H](O)[C@@H]2O)c(=O)n1 [ara-CMP, arabinofuranosylcytosine-5'-phosphate, reference compound] | 21% | 57% | – | 8% | 73% | – |
